Laboratory results published in patent US12351576B2, “FGFR inhibitor, preparation method therefor and application thereof” (Abbisko Therapeutics Co., Ltd., priority 2018, dated 2025).

What was measured:
[1] = tested on: H1581 lung cancer cells (FGFR1 gene amplification); assay: Cell proliferation assay (Cell Titer Glo), H1581; format: cell-based; conditions: Homo sapiens, NCI-H1581, 72 h, 3 days, CTG, read-out: Cellular IC50 (nM) H1581
Procedure: (§1) II. Cell Proliferation Assay (Cell Titer Glo(CTG) Assay)
(§2) The FGFR signal pathway dependent inhibitory effect of the compound in the present invention on cell proliferation was assessed by survival test using CTG reagent (Promega, 4G7573). Cell lines representative of a variety of tumor types, including H1581 lung cancer cells (FGFR1 gene amplification), Snu-16 gastric cancer cells (FGFR2 gene amplification), and RT112 bladder carcinoma cells (FGFR3-TACC3 fusion) from Nanjing Cobioer Biosciences, were selected for the assay. The specific experimental procedure was as follows: • 1. 90 μL of cells were seeded into a 96-well plate processed with TCM (Costar 43904), and incubated overnight at 37° C. in a 5% CO2 incubator; afterwards, 10 μL of the culture medium containing the compound at 10 fold of its final concentration was added; • 2. The dose-dependent effect was evaluated by a serial dilution of the test compound, starting from 10 μM or a lower concentration. • 3. The cells were incubated at 37° C. under 5% C02 for 3 days, then added 50 μL CTG, and read the data with Envision (Pelkin Elmer) to quantify the ATP level in the cells. The ATP levels in cells with treatment of inhibitor at a variety of concentrations were compared with those in cells of the control group (in which DMSO was added into the medium) to evaluate the compound percent inhibition of cell proliferation/survival. • 4. The compound half growth inhibitory concentration (IC50) was determined in Graphpad Prism by 4-parameter curve fitting.

[2] = tested on: Snu-16 gastric cancer cells (FGFR2 gene amplification); assay: Cell proliferation assay (Cell Titer Glo), Snu-16; format: cell-based; conditions: Homo sapiens, SNU-16, 72 h, Snu-16 cells, 3 days, CTG; read-out: Cellular IC50 (nM) Sun16
Procedure: as §1, §2

Row | Structure (SMILES) | IC50 [1] [nM] | IC50 [2] [nM]
1 | CCn1c(=O)c(-c2c(Cl)c(OC)cc(OC)c2Cl)cc2cnc(-c3cn(CCN4CCOCC4)nc3C)cc21 [Example 42, 3-(2,6-dichloro-3,5-dimethoxyphenyl)-1-ethyl-7-(3-methyl-1-(2-morpholinoethyl)-1H-pyrazol-4-yl)-1,6-naphthyridin-2(1H)-one] | 50 to 500 | 10 to 50
2 | COc1cc(OC)c(F)c(-c2cc3cnc(-c4cnccc4C)cc3n(C3CCOC3)c2=O)c1F (stereo not shown) [Example 37, 3-(2,6-difluoro-3,5-dimethoxyphenyl)-7-(4-methylpyridin-3-yl)-1-(tetrahydrofuran-3-yl)-1,6-naphthyridin-2(1H)-one] | > 500 | 50 to 500
3 | COc1cc(OC)c(F)c(-c2cc3cnc(-c4cnn(CCN5CCOCC5)c4)cc3n(CC3CC3)c2=O)c1F [Example 31, 1-(cyclopropylmethyl)-3-(2,6-difluoro-3,5-dimethoxyphenyl)-7-(1-(2-morpholinoethyl)-1H-pyrazol-4-yl)-1,6-naphthyridin-2(1H)-one] | 50 to 500 | 10 to 50
4 | COc1cc(OC)c(Cl)c(-c2cc3cnc(-c4cn(CCN5CCOCC5)nc4C)cc3n(C)c2=O)c1Cl [Example 47, 3-(2,6-dichloro-3,5-dimethoxyphenyl)-1-methyl-7-(3-methyl-1-(2-morpholinoethyl)-1H-pyrazol-4-yl)-1,6-naphthyridin-2(1H)-one] | 50 to 500 | 50 to 500
5 | COc1cc(OC)c(F)c(-c2cc3cnc(-c4ccc(CC#N)cc4)cc3n(C3CCOC3)c2=O)c1F (stereo not shown) [Example 41, 2-(4-(3-(2,6-difluoro-3,5-dimethoxyphenyl)-2-oxo-1-(tetrahydrofuran-3-yl)-1,2-dihydro-1,6-naphthyridin-7-yl)phenyl)acetonitrile] | 50 to 500 | 50 to 500

More lines, now with the values ahead:

Row | IC50 [1] [nM] | IC50 [2] [nM] | Structure (SMILES)
6 | 50 to 500 | 10 to 50 | COc1cc(OC)c(F)c(-c2cc3cnc(-c4cccnc4)cc3n(C3CCOC3)c2=O)c1F (stereo not shown) [Example 36, 3-(2,6-difluoro-3,5-dimethoxyphenyl)-7-(pyridin-3-yl)-1-(tetrahydrofuran-3-yl)-1,6-naphthyridin-2(1H)-one]
7 | > 500 | 50 to 500 | CCn1c(=O)c(-c2c(Cl)c(OC)cc(OC)c2Cl)cc2cnc(-c3cnn(CCN(C)C)c3C)cc21 [Example 52, 3-(2,6-dichloro-3,5-dimethoxyphenyl)-7-(1-(2-(dimethylamino)ethyl)-5-methyl-1H-pyrazol-4-yl)-1-ethyl-1,6-naphthyridin-2(1H)-one]
8 | 50 to 500 | 50 to 500 | CCn1c(=O)c(-c2c(Cl)c(OC)cc(OC)c2Cl)cc2cnc(-c3cn(CCC#N)nc3C)cc21 [Example 44, 3-(4-(3-(2,6-dichloro-3,5-dimethoxyphenyl)-1-ethyl-2-oxo-1,2-dihydro-1,6-naphthyridin-7-yl)-3-methyl-1H-pyrazol-1-yl)propanenitrile]
9 | 50 to 500 | 50 to 500 | COc1cc(OC)c(F)c(-c2cc3cnc(-c4ccncc4)cc3n(C3CCOC3)c2=O)c1F (stereo not shown) [Example 39, 3-(2,6-difluoro-3,5-dimethoxyphenyl)-7-(pyridin-4-yl)-1-(tetrahydrofuran-3-yl)-1,6-naphthyridin-2(1H)-one]
10 | > 500 | 50 to 500 | CCn1c(=O)c(-c2c(Cl)c(OC)cc(OC)c2Cl)cc2cnc(-c3cnn(CCC#N)c3C)cc21 [Example 51, 3-(4-(3-(2,6-dichloro-3,5-dimethoxyphenyl)-1-ethyl-2-oxo-1,2-dihydro-1,6-naphthyridin-7-yl)-5-methyl-1H-pyrazol-1-yl)propanenitrile]
11 | 50 to 500 | 5 to 10 | COc1cc(OC)c(Cl)c(-c2cc3cnc(-c4cnn(C)c4)cc3n(C3CCOCC3)c2=O)c1Cl [Example 17, 3-(2,6-dichloro-3,5-dimethoxyphenyl)-7-(1-methyl-1H-pyrazol-4-yl)-1-(tetrahydro-2H-pyran-4-yl)-1,6-naphthyridin-2(1H)-one]
